{"source": "patent US9453008B2", "about": "“Antithrombotic and antiatherosclerotic agent and method for producing same (variants)” (PROTON OOO, priority 2011, dated 2016)", "key": {"[1]": {"system": "spontaneously hypertensive (SHT) rats", "test": "Blood pressure in narcotized SHT rats, intravenous administration", "format": "in vivo, rat", "method": "(§1) The experiments were performed on spontaneously hypertensive (SHT) and normotensive (NT) narcotized male rats using intravenous administration of the tested compounds. The ability of the compound to reduce arterial blood pressure (BP) in SHT rats and prevent spasmogenic reactions to noradrenalin (NA) and angiotensin I (AI).\nThe compound of formula I was used as a solution in 3% aqueous DMSO. Sodium nitroprusside and nitroglycerin were used as reference drugs.\nThe administration of the compound of formula I in dose range 0.01-0.1-0.5 and 1.0 mg/kg has exerted dose-dependent antihypertensive effect ranging in time from 30-40 s to 60 min and more."}, "[2]": {"system": "pressor effect of noradrenaline", "test": "Pressor effect of noradrenaline after intravenous administration in normotensive narcotized rats", "format": "in vivo, rat", "method": "as §1\n(§2) The effects of the compound of formula I on the pressor effects of noradrenaline (NA, 10-15 μg/kg), mesatonum (M, 5 μg/kg) and angiotensin (AI, 5 μg/kg) were studied on normotensive narcotized […]. Antihypertensive action of the compound of formula I was assessed relative to the pressor effects of the control administration of the aforementioned compounds."}, "[3]": {"system": "pressor effect of angiotensin I", "test": "Pressor effect of angiotensin I after intravenous administration in normotensive narcotized rats", "format": "in vivo, rat", "method": "as §1, §2"}, "[4]": {"system": "non-narcotized SHT rats", "test": "Blood pressure in non-narcotized SHT rats, intragastric administration (non-invasive BP measurement)", "format": "in vivo, rat", "details": "10 mg/kg orally, 0 - absence of effect", "method": "In experiments on non-narcotized SHT rats intragastric administration of the compound of formula I has caused dose-dependent reduction of BP, the duration of which was increased correspondingly with dose increase (maximal duration of effect 5 hours after single administration of 50 mg/kg dose, Table 3)."}, "[5]": {"details": "higher doses (above 0.01 mg/kg) intravenous"}}, "data": [{"compound": "O=[N+]([O-])OCC(CO[N+](=O)[O-])O[N+](=O)[O-]", "note": "[Nitroglycerin, reference compound]", "values": [{"measurement": "Duration of BP reduction", "setting": "[1]; 0.01 mg/kg dose intravenous", "value": "30 to 40", "unit": "s"}, {"measurement": "Reduction of BP", "setting": "[1]; 0.01 mg/kg dose intravenous", "value": "10-15 mmHg"}, {"measurement": "Reduction of BP, mmHg (Δ)", "setting": "[1]; 0.01 mg/kg intravenously, 10-20 s", "value": "−5", "unit": "mmHg"}, {"measurement": "Reduction of BP, mmHg (Δ)", "setting": "[1]; 0.01 mg/kg intravenously, 5 min", "value": "−10 ± 3", "unit": "mmHg"}, {"measurement": "Reduction of BP, mmHg (Δ)", "setting": "[1]; 0.01 mg/kg intravenously, 30 min", "value": "−3", "unit": "mmHg"}, {"measurement": "Reduction of BP, mmHg (Δ)", "setting": "[1]; 0.1 mg/kg intravenously, 10-20 s", "value": "−7 ± 3", "unit": "mmHg"}, {"measurement": "Reduction of BP, mmHg (Δ)", "setting": "[1]; 0.1 mg/kg intravenously, 5 min", "value": "−20 ± 5", "unit": "mmHg"}, {"measurement": "Reduction of BP, mmHg (Δ)", "setting": "[1]; 0.1 mg/kg intravenously, 30 min", "value": "−5", "unit": "mmHg"}, {"measurement": "Reduction of BP, mmHg (Δ)", "setting": "[1]; 0.5 mg/kg intravenously, 10-20 s", "value": "−12 ± 3", "unit": "mmHg"}, {"measurement": "Reduction of BP, mmHg (Δ)", "setting": "[1]; 0.5 mg/kg intravenously, 5 min", "value": "−25 ± 7", "unit": "mmHg"}, {"measurement": "Reduction of BP, mmHg (Δ)", "setting": "[1]; 0.5 mg/kg intravenously, 30 min", "value": "−5", "unit": "mmHg"}, {"measurement": "Reduction of BP, mmHg (Δ)", "setting": "[1]; 1.0 mg/kg intravenously, 10-20 s", "value": "−10 ± 3", "unit": "mmHg"}, {"measurement": "Reduction of BP, mmHg (Δ)", "setting": "[1]; 1.0 mg/kg intravenously, 5 min", "value": "−25 ± 8", "unit": "mmHg"}, {"measurement": "Reduction of BP, mmHg (Δ)", "setting": "[1]; 1.0 mg/kg intravenously, 30 min", "value": "−7 ± 3", "unit": "mmHg"}, {"measurement": "Duration of BP reduction", "setting": "[1]; [5]", "value": "300 to 360", "unit": "s"}, {"measurement": "Reduction of BP", "setting": "[1]; [5]", "value": "20-25 mmHg"}, {"measurement": "Inhibition of pressor reaction (%) induced by Noradrenaline", "setting": "[2]; 0.5 mg/kg intravenous", "value": "20-25%"}, {"measurement": "Inhibition of pressor reaction (%) induced by Noradrenaline", "setting": "[2]; 1.0 mg/kg intravenous", "value": "40-50%"}, {"measurement": "Inhibition of pressor reaction (%) induced by Angiotensin I", "setting": "[3]; 0.5 mg/kg intravenous, 0 - absence of effect", "value": 0, "unit": "%"}, {"measurement": "Inhibition of pressor reaction (%) induced by Angiotensin I", "setting": "[3]; 1.0 mg/kg intravenous", "value": "25-30%"}, {"measurement": "Reduction of BP, mmHg", "setting": "[4]; time column 1, 1 h after dosing", "value": 0, "unit": "mmHg"}, {"measurement": "Reduction of BP, mmHg", "setting": "[4]; time column 2, 2 h after dosing", "value": 0, "unit": "mmHg"}, {"measurement": "Reduction of BP, mmHg", "setting": "[4]; time column 3, 3 h after dosing", "value": 0, "unit": "mmHg"}, {"measurement": "Reduction of BP, mmHg", "setting": "[4]; time column 4, 4 h after dosing", "value": 0, "unit": "mmHg"}, {"measurement": "Reduction of BP, mmHg", "setting": "[4]; time column 5, 5 h after dosing", "value": 0, "unit": "mmHg"}, {"measurement": "Reduction of BP, mmHg", "setting": "[4]; time column 6, 6 h after dosing", "value": 0, "unit": "mmHg"}]}, {"compound": "CN1CCOC1=C(C#N)C=C1Nc2ccccc2C1=O", "note": "[IX, 2-[2-Cyano-2-(3-methyloxazolidin-2-ylidene)ethylidene]indolin-3-one]", "values": [{"measurement": "melting point", "value": "222 to 226 °C (dec.)"}]}, {"compound": "CN1CC(C(O)C(O)C(O)CO)OC1=C(C#N)C=C1Nc2ccccc2C1=O", "note": "(stereo not shown) (hydrate or solvate) [X, 2-[2-Cyano-2-[3-methyl-5-(1,2,3,4-tetrahydroxybutyl)oxazolidin-2-ylidene]ethylidene]indolin-3-one]", "values": [{"measurement": "melting point", "value": "237 °C (dec.)"}]}]}
